Measured values reported in ChEMBL document CHEMBL2216755, “Ranking high affinity ligands of low solubility by NMR spectroscopy” (ACS Med Chem Lett, 2011).

Tests used:
[1] = target: T1, Peptidyl-prolyl cis-trans isomerase A (Homo sapiens, UniProt P62937); test: Binding affinity to human cyclophilin A assessed as compound-enzyme complex formation at 1:1 protein to compound ratio by NMR analysis
Target sequence in this assay (P62937 whole entry, looked up): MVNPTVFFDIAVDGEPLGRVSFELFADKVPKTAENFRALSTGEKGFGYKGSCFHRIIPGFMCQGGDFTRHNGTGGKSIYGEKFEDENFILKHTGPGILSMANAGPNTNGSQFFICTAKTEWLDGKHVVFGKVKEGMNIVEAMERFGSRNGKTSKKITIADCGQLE

[2] = target: T1, Peptidyl-prolyl cis-trans isomerase A; test: Binding affinity to human cyclophilin A by intrinsic tryptophan fluorescence
Target sequence in this assay (P62937 whole entry): as the sequence (P62937 whole entry, looked up) above

Activity [1] [%]	SMILES	Kd [2] [nM]
53	C/C=C/C[C@@H](C)[C@@H](O)[C@H]1C(=O)N[C@@H](CC)C(=O)N(C)CC(=O)N(C)[C@@H](CC(C)C)C(=O)N[C@@H](C(C)C)C(=O)N(C)[C@@H](CC(C)C)C(=O)N[C@@H](C)C(=O)N[C@H](C)C(=O)N(C)[C@@H](CC(C)C)C(=O)N(C)[C@@H](C(C)C)C(=O)N(C)[C@@H](C(C)C)C(=O)N1C	
59	C/C=C/C[C@@H](C)[C@@H](O)[C@H]1C(=O)N[C@@H](CC)C(=O)N(C)[C@H](C)C(=O)N(CC)[C@@H](C(C)C)C(=O)N[C@@H](C(C)C)C(=O)N(C)[C@@H](CC(C)C)C(=O)N[C@@H](C)C(=O)N[C@H](C)C(=O)N(C)[C@@H](CC(C)C)C(=O)N(C)[C@@H](CC(C)C)C(=O)N(C)[C@@H](C(C)C)C(=O)N1C [ALISPORIVIR]	11
	C/C=C/C[C@@H](C)[C@@H](O)[C@H]1C(=O)N[C@@H](CC)C(=O)N(C)CC(=O)N(C)[C@@H](C(C)C)C(=O)N[C@@H](C(C)C)C(=O)N(C)[C@@H](CC(C)C)C(=O)N[C@@H](C)C(=O)N[C@H](C)C(=O)N(C)[C@@H](CC(C)C)C(=O)N(C)[C@@H](CC(C)C)C(=O)N(C)[C@@H](C(C)C)C(=O)N1C	11
